The target of assay [1] is PI3-kinase p110-delta/p85-alpha (Homo sapiens) (UniProt P27986+O00329). Kind of assay: Inhibition of p110delta/p85alpha (unknown origin) at 100 nM incubated for 2 hrs in presence of ATP by ADP-kinaseGlo reagent based assay relative to control. It counts as protein-complex assay. For orientation: Kinase-Glo reads ATP consumption through a luciferase reaction.
The target in assay [2] is T1, Bromodomain-containing protein 4 (Homo sapiens, UniProt O60885). Kind of assay: Inhibition of His-tagged BRD4-BD1 (unknown origin) at 10 nM incubated for 30 mins by Alphascreen assay relative to control.
The target of assay [3] is PI3-kinase p110-delta/p85-alpha (Homo sapiens, UniProt O00329). Kind of assay: Inhibition of p110delta/p85alpha (unknown origin) incubated for 2 hrs in presence of ATP by ADP-kinaseGlo reagent based assay. It counts as protein-complex assay.
PI3-kinase p110-delta/p85-alpha, sequence (P27986 whole entry): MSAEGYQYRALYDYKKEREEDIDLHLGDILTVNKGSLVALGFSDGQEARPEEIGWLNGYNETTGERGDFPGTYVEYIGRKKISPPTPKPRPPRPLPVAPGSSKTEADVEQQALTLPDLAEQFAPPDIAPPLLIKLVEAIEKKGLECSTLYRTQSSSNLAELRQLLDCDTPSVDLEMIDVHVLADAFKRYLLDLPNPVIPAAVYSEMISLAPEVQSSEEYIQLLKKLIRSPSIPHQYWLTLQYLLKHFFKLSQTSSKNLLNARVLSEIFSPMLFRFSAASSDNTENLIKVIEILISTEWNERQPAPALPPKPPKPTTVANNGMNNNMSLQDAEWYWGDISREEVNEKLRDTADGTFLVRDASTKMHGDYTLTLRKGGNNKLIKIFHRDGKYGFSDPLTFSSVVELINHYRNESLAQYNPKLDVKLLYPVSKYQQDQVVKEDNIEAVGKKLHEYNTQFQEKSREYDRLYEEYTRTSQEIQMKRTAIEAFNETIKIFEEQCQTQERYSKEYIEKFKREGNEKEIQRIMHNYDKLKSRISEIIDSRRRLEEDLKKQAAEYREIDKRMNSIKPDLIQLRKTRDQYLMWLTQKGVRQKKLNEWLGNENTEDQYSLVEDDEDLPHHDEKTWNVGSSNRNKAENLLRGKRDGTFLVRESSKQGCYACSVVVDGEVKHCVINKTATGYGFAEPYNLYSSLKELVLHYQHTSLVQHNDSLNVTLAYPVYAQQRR
PI3-kinase p110-delta/p85-alpha, sequence (O00329 whole entry): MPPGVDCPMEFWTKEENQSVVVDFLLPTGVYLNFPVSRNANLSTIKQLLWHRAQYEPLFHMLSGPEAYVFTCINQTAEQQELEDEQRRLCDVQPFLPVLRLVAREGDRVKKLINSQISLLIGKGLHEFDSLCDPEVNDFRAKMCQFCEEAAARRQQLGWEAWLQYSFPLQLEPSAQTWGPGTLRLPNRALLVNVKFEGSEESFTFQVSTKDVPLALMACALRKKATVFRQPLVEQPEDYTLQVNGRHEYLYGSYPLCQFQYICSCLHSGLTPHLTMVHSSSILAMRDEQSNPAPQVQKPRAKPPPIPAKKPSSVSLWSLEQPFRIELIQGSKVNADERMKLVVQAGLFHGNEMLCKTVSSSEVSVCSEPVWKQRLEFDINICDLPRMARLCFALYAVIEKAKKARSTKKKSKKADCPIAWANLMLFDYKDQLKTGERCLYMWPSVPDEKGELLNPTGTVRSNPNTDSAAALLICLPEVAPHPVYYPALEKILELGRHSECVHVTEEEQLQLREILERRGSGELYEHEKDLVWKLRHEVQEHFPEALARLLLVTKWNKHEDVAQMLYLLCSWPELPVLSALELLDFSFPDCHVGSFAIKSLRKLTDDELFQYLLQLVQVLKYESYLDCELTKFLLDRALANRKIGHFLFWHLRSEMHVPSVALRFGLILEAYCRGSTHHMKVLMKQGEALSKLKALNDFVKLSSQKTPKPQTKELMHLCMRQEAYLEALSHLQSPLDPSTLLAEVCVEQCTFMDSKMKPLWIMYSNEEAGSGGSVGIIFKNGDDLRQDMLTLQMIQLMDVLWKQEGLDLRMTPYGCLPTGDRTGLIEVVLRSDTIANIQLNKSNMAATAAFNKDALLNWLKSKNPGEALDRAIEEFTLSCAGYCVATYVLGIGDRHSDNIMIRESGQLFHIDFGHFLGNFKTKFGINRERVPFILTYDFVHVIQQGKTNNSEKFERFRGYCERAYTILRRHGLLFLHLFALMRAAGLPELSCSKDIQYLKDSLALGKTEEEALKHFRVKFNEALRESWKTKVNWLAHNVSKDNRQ
Assay [4] has as its target T1, Bromodomain-containing protein 4. Kind of assay: Inhibition of His-tagged BRD4-BD1 (unknown origin) incubated for 30 mins in presence of ATP by Alphascreen assay. Background: In Alpha technology, singlet oxygen from a donor bead excites a nearby acceptor bead.
The subject of assay [5] is SUD4. Kind of assay: Antiproliferative against activity human SU-DHL-4 cells assessed as inhibition of cell growth incubated for 72 hrs by Celltiter-luminescence analysis. It counts as functional, cell-based. To be noted: SU-DHL-4, 72 h.
In assay [6] the test system is SU-DHL-6. As to the kind of experiment: Antiproliferative against activity human SU-DHL-6 cells assessed as inhibition of cell growth incubated for 72 hrs by Celltiter-luminescence analysis. It counts as functional, cell-based. To be noted: SU-DHL-6, 72 h.

From ChEMBL document CHEMBL6153089, “Design, Synthesis, and Biological Evaluation of Thieno[3,2-d]pyrimidine Derivatives as the First Bifunctional PI3Kδ Isoform Selective/Bromodomain and Extra-Terminal Inhibitors” (J Med Chem, 2025) come the findings set out here.

The term inhibition denotes how much of the control response was suppressed. For orientation: IC50 means the concentration at which inhibition is half-maximal.

Regarding `C[C@@H](N)C(=O)N1CCN(Cc2cc3nc(-c4cn(C)c(=O)c5[nH]ccc45)nc(N4CCOCC4)c3s2)CC1`, the values for the inhibition in assay [1] and in assay [2] were 16.2% and 56.8%, respectively.
The like results for `Cn1cc(-c2nc(N3CCOCC3)c3sc(CN4CCN(C(=O)CN)CC4)cc3n2)c2cc[nH]c2c1=O` were, in that order, 16% and 28.2%.
For `C[C@@H](O)C(=O)N1CCN(Cc2cc3nc(-c4cn(C)c(=O)c5[nH]ccc45)nc(N4CCOCC4)c3s2)CC1` the same measures were 27.4% and 38.2%.
For `Cn1cc(-c2nc(N3CCOCC3)c3sc(CN4CCN(C(=O)CO)CC4)cc3n2)c2cc[nH]c2c1=O` the same measures were 28.8% and 35.2%.
For `Cn1cc(-c2nc(N3CCOCC3)c3sc(CN4CCN(S(C)(=O)=O)CC4)cc3n2)c2cc[nH]c2c1=O`, the inhibition in assay [1] was 45.7%; in assay [2], 32.7%. Further, the IC50 in assay [3] was found to be 96 nM; in assay [4], 15 nM; in assay [5], 665 nM; in assay [6] it was 270 nM.
`CC(=O)N1CCN(Cc2cc3nc(-c4cn(C)c(=O)c5[nH]ccc45)nc(N4CCOCC4)c3s2)CC1`: the inhibition in assay [1] was 46.9%; in assay [2] it was 44.2%. In addition, the IC50 amounted to 108 nM in assay [3], 11 nM in assay [4], 166 nM in assay [5] and 79 nM in assay [6].
In the case of `CC(=O)Nc1cc(-c2nc(N3CCOCC3)c3sc(CN4CCN(CC5CC5)CC4)cc3n2)cn(C)c1=O`, the inhibition was found to be 21.5% in assay [1] and 3% in assay [2].
The like results for `Cn1cc(-c2nc(N3CCOCC3)c3sc(CN4CCN(C(=O)C(C)(C)O)CC4)cc3n2)c2cc[nH]c2c1=O` were, in that order, 20.1% and 32.6%.
The like results for `Cn1ccc(-c2nc(N3CCOCC3)c3sc(CN4CCN(CC5CC5)CC4)cc3n2)cc1=O` were, in that order, 24.1% and 4.6%.
For the molecule `Cn1cc(-c2nc(N3CCCCC3)c3sc(CN4CCN(CC5CC5)CC4)cc3n2)c2cc[nH]c2c1=O`, the inhibition turned out to be 0.9% in assay [1] and 35% in assay [2].
For `CNc1cc(-c2nc(N3CCOCC3)c3sc(CN4CCN(CC5CC5)CC4)cc3n2)cn(C)c1=O` the same measures were 6% and 9.1%.
